Assays:
[1] = target: Bcr/Abl fusion protein (Homo sapiens, UniProt P00519); experiment: Inhibition of BCR-ABL1 (unknown origin) assessed as ATP remaining by Kinase-Glo luminescent kinase assay
[2] = tested on: K562; experiment: cells; format: functional, cell-based; conditions: Homo sapiens, K562, 48 h
Description: Antitumor activity against human K562 cells assessed as inhibition of cell growth after 48 hrs by MTT assay

Bcr/Abl fusion protein, sequence (P00519 whole entry, the tested form may be a part): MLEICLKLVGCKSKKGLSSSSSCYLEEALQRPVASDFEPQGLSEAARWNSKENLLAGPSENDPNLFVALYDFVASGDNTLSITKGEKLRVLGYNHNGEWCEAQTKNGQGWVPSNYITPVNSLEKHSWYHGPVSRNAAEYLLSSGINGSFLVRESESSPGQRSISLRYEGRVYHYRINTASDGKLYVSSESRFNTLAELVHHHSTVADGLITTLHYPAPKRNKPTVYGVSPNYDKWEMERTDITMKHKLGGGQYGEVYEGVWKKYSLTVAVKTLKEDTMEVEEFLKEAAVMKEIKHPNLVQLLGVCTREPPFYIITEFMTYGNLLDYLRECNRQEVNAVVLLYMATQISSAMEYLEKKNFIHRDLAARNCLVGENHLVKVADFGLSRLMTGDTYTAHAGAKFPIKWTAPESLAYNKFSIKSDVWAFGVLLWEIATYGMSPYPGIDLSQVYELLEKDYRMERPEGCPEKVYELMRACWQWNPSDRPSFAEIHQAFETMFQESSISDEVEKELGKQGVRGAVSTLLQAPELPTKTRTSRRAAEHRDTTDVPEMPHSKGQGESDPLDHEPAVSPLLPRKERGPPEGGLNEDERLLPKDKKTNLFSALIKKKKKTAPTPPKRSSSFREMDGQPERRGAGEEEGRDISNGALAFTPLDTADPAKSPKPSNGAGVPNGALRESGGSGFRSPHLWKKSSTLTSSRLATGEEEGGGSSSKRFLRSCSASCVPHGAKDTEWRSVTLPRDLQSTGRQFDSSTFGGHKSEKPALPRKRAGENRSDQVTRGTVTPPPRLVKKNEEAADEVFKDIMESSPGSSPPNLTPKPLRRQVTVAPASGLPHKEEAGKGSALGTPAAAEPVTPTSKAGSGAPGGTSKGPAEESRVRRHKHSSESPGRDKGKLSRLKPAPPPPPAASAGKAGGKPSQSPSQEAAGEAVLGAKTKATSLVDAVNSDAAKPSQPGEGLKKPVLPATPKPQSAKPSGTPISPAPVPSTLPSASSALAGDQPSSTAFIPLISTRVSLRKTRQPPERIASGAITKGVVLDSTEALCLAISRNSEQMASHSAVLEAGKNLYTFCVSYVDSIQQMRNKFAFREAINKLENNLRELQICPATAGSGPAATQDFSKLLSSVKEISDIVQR
Bcr/Abl fusion protein, sequence (P11274 whole entry, further chain, the tested form may be a part): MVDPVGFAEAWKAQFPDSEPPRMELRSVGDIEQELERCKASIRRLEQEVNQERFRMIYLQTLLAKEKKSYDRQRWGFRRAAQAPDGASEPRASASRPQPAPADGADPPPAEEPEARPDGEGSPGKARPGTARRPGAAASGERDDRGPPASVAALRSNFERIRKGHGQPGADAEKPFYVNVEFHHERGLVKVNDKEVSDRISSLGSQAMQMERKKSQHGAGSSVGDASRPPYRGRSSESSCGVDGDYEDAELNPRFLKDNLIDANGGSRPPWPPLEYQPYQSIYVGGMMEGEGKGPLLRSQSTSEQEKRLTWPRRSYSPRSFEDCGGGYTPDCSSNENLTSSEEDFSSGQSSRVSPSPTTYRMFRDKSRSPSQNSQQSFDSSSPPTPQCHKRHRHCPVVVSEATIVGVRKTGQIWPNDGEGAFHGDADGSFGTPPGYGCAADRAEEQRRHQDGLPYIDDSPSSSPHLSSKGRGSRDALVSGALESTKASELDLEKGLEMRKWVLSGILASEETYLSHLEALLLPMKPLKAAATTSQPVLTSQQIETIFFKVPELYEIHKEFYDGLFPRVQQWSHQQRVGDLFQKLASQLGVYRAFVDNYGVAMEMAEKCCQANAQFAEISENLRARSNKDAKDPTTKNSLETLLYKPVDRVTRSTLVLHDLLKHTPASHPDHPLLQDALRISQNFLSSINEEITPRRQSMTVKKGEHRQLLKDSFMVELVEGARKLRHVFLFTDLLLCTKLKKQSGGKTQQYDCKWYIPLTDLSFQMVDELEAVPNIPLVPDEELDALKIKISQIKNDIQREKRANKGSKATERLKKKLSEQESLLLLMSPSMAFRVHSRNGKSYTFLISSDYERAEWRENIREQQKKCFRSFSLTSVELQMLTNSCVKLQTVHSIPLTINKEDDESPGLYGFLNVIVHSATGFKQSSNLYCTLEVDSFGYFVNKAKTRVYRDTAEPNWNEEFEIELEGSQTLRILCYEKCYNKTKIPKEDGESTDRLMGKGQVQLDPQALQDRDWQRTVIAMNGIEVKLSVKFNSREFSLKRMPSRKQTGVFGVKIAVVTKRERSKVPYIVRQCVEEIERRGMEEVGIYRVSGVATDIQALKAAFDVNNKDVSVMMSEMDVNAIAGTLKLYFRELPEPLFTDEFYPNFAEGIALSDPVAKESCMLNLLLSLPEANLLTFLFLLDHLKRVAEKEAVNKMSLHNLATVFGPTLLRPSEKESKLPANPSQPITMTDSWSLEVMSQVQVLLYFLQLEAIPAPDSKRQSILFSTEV

Row | SMILES | IC50 [1] [nM] | IC50 [2] [nM]
1 | CCN1CCN(Cc2ccc(C(=O)Nc3ccc(C)c(-n4cc(-c5cccnc5)cn4)c3)cc2)CC1 | 16.9 | 2330
2 | Cc1ccc(NC(=O)c2cccc(Cl)c2)cc1-n1cc(-c2cccnc2)cn1 | 15.9 | 1320
3 | Cc1ccc(NC(=O)c2ccc(C(F)(F)F)cc2)cc1-n1cc(-c2cccnc2)cn1 | 43.3 | 760
4 | Cc1ccc(NC(=O)c2ccc(CN3CCCC3)cc2)cc1-n1cc(-c2cccnc2)cn1 | 117 | 2740
5 | Cc1ccc(NC(=O)c2ccc(CN3CCCN(C)CC3)cc2)cc1-n1cc(-c2cccnc2)cn1 | 26.6 | 8650
6 | Cc1ccc(NC(=O)c2ccc(Cn3ccnc3)cc2)cc1-n1cc(-c2cccnc2)cn1 | 326 | 136000
7 | Cc1ccc(NC(=O)c2cccc(C(F)(F)F)c2)cc1-n1cc(-c2cccnc2)cn1 | 14.2 | 270
8 | COc1ccc(C(=O)Nc2ccc(C)c(-n3cc(-c4cccnc4)cn3)c2)cc1 | 46.2 | 18300
9 | CCN(CC)Cc1ccc(C(=O)Nc2ccc(C)c(-n3cc(-c4cccnc4)cn3)c2)cc1 | 129 | 3260

Further compounds by falling IC50 [1], results first:

Row | IC50 [1] [nM] | IC50 [2] [nM] | SMILES
10 | 214 | 12500 | Cc1ccc(NC(=O)c2ccc(F)cc2)cc1-n1cc(-c2cccnc2)cn1
11 | 178 | 21500 | Cc1ccc(NC(=O)c2ccc(CN3CCOCC3)cc2)cc1-n1cc(-c2cccnc2)cn1
12 | 175 | 98300 | Cc1ccc(NC(=O)c2ccc(CN3CCN(CCO)CC3)cc2)cc1-n1cc(-c2cccnc2)cn1
13 | 50.6 | 1670 | Cc1ccc(NC(=O)c2ccc(CN3CCN(C)CC3)cc2)cc1-n1cc(-c2cccnc2)cn1
14 | 41 | 6520 | CCc1ccc(C(=O)Nc2ccc(C)c(-n3cc(-c4cccnc4)cn3)c2)cc1

— ChEMBL document CHEMBL3596095, “Design, synthesis, and biological activity of phenyl-pyrazole derivatives as BCR-ABL kinase inhibitors” (Bioorg Med Chem, 2015)
